Test results published in patent US8486693B2, “Modified dendritic cells having enhanced survival and immunogenicity and related compositions and methods” (Bellicum Pharmaceuticals, Inc., priority 2006, dated 2013).

B1: Akt.KM: kinase-dead mutant (K179M) chimeric Akt (protein, UniProt P31750 1-480, looked up, variant K179M)
RAC-alpha …: MNDVAIVKEGWLHKRGEYIKTWRPRYFLLKNDGTFIGYKERPQDVDQRESPLNNFSVAQCQLMKTERPRPNTFIIRCLQWTTVIERTFHVETPEEREEWATAIQTVADGLKRQEEETMDFRSGSPSDNSGAEEMEVSLAKPKHRVTMNEFEYLKLLGKGTFGKVILVKEKATGRYYAMMILKKEVIVAKDEVAHTLTENRVLQNSRHPFLTALKYSFQTHDRLCFVMEYANGGELFFHLSRERVFSEDRARFYGAEIVSALDYLHSEKNVVYRDLKLENLMLDKDGHIKITDFGLCKEGIKDGATMKTFCGTPEYLAPEVLEDNDYGRAVDWWGLGVVMYEMMCGRLPFYNQDHEKLFELILMEEIRFPRTLGPEAKSLLSGLLKKDPTQRLGGGSEDAKEIMQHRFFANIVWQDVYEKKLSPPFKPQVTSETDTRYFDEEFTAQMITITPPDQDDSMECVDSERRPHFPQFSYSASGTA
modifications: chimeric

Tested on: NF-.kappa.B
Assay: NF-.kappa.B/SEAP reporter assay in Jurkat-TAg cells (Example 10, iAkt)
Assay type: cell-based, human
Procedure: Jurkat-TAg cells in logarithmic-phase growth were electroporated ([…], 250 V; Gene Pulser II (BIO-RAD)) with expression plasmids and the NF-.kappa.B-SEAP reporter plasmid. After 24 hours, transfected cells were stimulated with sub-optimal levels of the phorbol ester PMA (5 ng/ml) along with log dilutions of the heterodimerizing CID, AP22783, and additional treatments. After an additional 24 hours, supernatants were assayed for SEAP activity.
Two key requirements for efficient synthetic regulation of a biological event are highly specific conditional dependency and low background. […] Therefore, in order to optimize iAkt, an NF-.kappa.B-responsive secreted alkaline phosphatase (SEAP) reporter plasmid was used as an assay for Akt activation.
Briefly, the human T cell line, Jurkat-TAg, was cotransfected with reporter plasmid, NF-.kappa.B/SEAP, along with constitutively active M-Akt expression vector or empty control vector. Twenty-four hours after transfection, cells were divided into aliquots that were stimulated with sub-optimal levels (5 ng/ml) of the phorbol ester, PMA, or were untreated. After an additional 24 hours, SEAP activity was measured. Although Akt activity alone was insufficient to induce measurable NF-.kappa.B activity, M-Akt expression potentiated (by 3-4 fold) PKC-induced NF-.kappa.B activity, consistent with multiple reports. […]

Row | Molecule | NF-.kappa.B activation by M-Akt plus PKC in presence of inhibitor (LY294002 5 μM, wortmannin 1 μM, R0318220 1 μM) | NF-.kappa.B induction on CID (AP22783)-mediated membrane recruitment via M-FRB12 (5 ng/ml PMA, log dilutions of AP22783)
1 | Cn1cc(C2=C(c3cn(CCCSC(=N)N)c4ccccc34)C(=O)NC2=O)c2ccccc21 [R0318220] | complete inhibition of NF-.kappa.B | –
2 | B1 | – | no detectable effect on NF-.kappa.B induction over PMA alone
